# In patent publication US8802597B2, “Herbicidal pyrimidines” (E I du Pont de Nemours and Company, priority 2003, dated 2014):
# Columns and labels:
# Format in all cases: in vivo
# [1] = system: Surinam grass (Brachiaria decumbens); assay: Test B pre/postemergence
# Outline: (§1)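 Scores reflect visual comparison with untreated controls, where 0 means no effect and 100 complete control. Plants stayed 13 to 15 days in the greenhouse after pre- or postemergence treatment with compounds carried in a non-phytotoxic solvent and surfactant.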
# [2] = system: barnyardgrass (Echinochloa crus-galli); assay: Test B pre/postemergence
# Outline: as §1
# [3] = system: cocklebur (Xanthium strumarium); assay: Test B pre/postemergence
# Outline: as §1
# corn (Zea mays) = assay: Test B pre/postemergence
# Outline: as §1
# [4] = system: crabgrass (Digitaria sanguinalis); assay: Test B pre/postemergence
# Outline: as §1
# [5] = system: giant foxtail (Setaria faberii); assay: Test B pre/postemergence
# Outline: as §1
# [6] = system: lambsquarters (Chenopodium album); assay: Test B pre/postemergence
# Outline: as §1
# [7] = system: morningglory (Ipomoea coccinea); assay: Test B pre/postemergence
# Outline: as §1
# [8] = system: pigweed (Amaranthus retroflexus); assay: Test B pre/postemergence
# Outline: as §1
# [9] = system: velvetleaf (Abutilon theophrasti); assay: Test B pre/postemergence
# Outline: as §1
# [10] = system: wheat (Triticum aestivum); assay: Test B pre/postemergence
# Outline: as §1
# [11] = system: blackgrass (Alopecurus myosuroides); assay: Test B postemergence; conditions: for Blackgrass plant response rating: scale 0 to 100 (0 no effect, 100 complete control)
# Outline: as §1
# wild oat (Avena fatua) = assay: Test B postemergence; conditions: for Oat, Wild plant response rating: scale 0 to 100 (0 no effect, 100 complete control)
# Outline: as §1
# [12] = system: barnyardgrass (Echinochloa crus-galli); assay: Test B flooded paddy test; conditions: Flood
# Outline: (§2)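 Visual injury scoring (0 = no effect, 100 = complete control) versus controls made 13 to 15 days after treatment in the greenhouse. Test species were grown in flooded paddy to the 2-leaf stage: rice, barnyardgrass, umbrella sedge, duck salad.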
# [13] = system: duck salad (Heteranthera limosa); assay: Test B flooded paddy test; conditions: Flood, scale 0 to 100
# Outline: as §2
# rice (Oryza sativa) = assay: Test B flooded paddy test; conditions: Flood, scale 0 to 100
# Outline: as §2
# [14] = system: umbrella sedge (Cyperus difformis); assay: Test B flooded paddy test; conditions: Flood, scale 0 to 100
# Outline: as §2
# [15] = Postemergence, 125 g ai/ha, scale 0 to 100 (0 no effect, 100 complete control)
# [16] = Postemergence, 500 g ai/ha, scale 0 to 100
# [17] = Preemergence, 125 g ai/ha, scale 0 to 100 (0 no effect, 100 complete control)
# [18] = Preemergence, 500 g ai/ha, scale 0 to 100 (0 no effect, 100 complete control)
# [19] = Postemergence, 62 g ai/ha, scale 0 to 100 (0 no effect, 100 complete control)
# [20] = Preemergence, 62 g ai/ha, scale 0 to 100, 0 no effect, 100 complete control
smiles,measurement,setting,value
CCOC(=O)Cc1nc(C2CC2)nc(N)c1Br [Compound 12],Surinam Grass plant response rating,[1]; [15],0
same,"Plant response rating, Surinam Grass",[1]; [16],0
same,"Plant response rating, Surinam Grass",[1]; [17],0
same,Barnyardgrass plant response rating,[2]; [15],0
same,"Plant response rating, Barnyardgrass",[2]; [16],40
same,"Plant response rating, Barnyardgrass",[2]; [17],50
same,Barnyardgrass plant response rating,[2]; [18],80
same,Cocklebur plant response rating,[3]; [15],40
same,"Plant response rating, Cocklebur",[3]; [16],70
same,"Plant response rating, Cocklebur",[3]; [17],80
same,Cocklebur plant response rating,[3]; [18],90
same,Corn plant response rating,corn (Zea mays); [15],0
same,"Plant response rating, Corn",corn (Zea mays); [16],0
same,"Plant response rating, Corn",corn (Zea mays); [17],0
same,Corn plant response rating,corn (Zea mays); [18],30
same,Crabgrass plant response rating,[4]; [15],10
same,"Plant response rating, Crabgrass",[4]; [16],30
same,"Plant response rating, Crabgrass",[4]; [17],20
same,Crabgrass plant response rating,[4]; [18],70
same,"Foxtail, Giant plant response rating",[5]; [15],0
same,"Plant response rating, Foxtail, Giant",[5]; [16],30
same,"Plant response rating, Foxtail, Giant",[5]; [17],20
same,"Foxtail, Giant plant response rating",[5]; [18],50
same,Lambsquarters plant response rating,[6]; [15],60
same,"Plant response rating, Lambsquarters",[6]; [16],80
same,"Plant response rating, Lambsquarters",[6]; [17],90
same,Lambsquarters plant response rating,[6]; [18],100
same,Morningglory plant response rating,[7]; [15],60
same,"Plant response rating, Morningglory",[7]; [16],80
same,"Plant response rating, Morningglory",[7]; [17],70
same,Morningglory plant response rating,[7]; [18],90
same,Pigweed plant response rating,[8]; [15],50
same,"Plant response rating, Pigweed",[8]; [16],80
same,"Plant response rating, Pigweed",[8]; [17],80
same,Pigweed plant response rating,[8]; [18],90
same,Velvetleaf plant response rating,[9]; [15],20
same,"Plant response rating, Velvetleaf",[9]; [16],60
same,"Plant response rating, Velvetleaf",[9]; [17],80
same,Velvetleaf plant response rating,[9]; [18],90
same,Wheat plant response rating,[10]; [15],0
same,"Plant response rating, Wheat",[10]; [16],0
same,"Plant response rating, Wheat",[10]; [17],30
same,Wheat plant response rating,[10]; [18],60
same,Blackgrass plant response rating,[11]; 125 g ai/ha,0
same,"Plant response rating, Blackgrass","[11]; 500 g ai/ha, scale 0 to 100",0
same,"Oat, Wild plant response rating",wild oat (Avena fatua); 125 g ai/ha,0
same,"Plant response rating, Oat, Wild","wild oat (Avena fatua); 500 g ai/ha, scale 0 to 100",0
same,"Plant response rating, Barnyardgrass","[12]; 1000 g ai/ha, scale 0 (no effect) to 100 (complete control)",0
same,"Plant response rating, Ducksalad",[13]; 1000 g ai/ha,20
same,"Plant response rating, Rice",rice (Oryza sativa); 1000 g ai/ha,20
same,"Plant response rating, Sedge, Umbrella",[14]; 1000 g ai/ha,0
CCOC(=O)c1nc(-c2ccc(I)cc2)nc(N)c1Cl [Compound 133],Surinam Grass plant response rating,[1]; [19],60
same,Surinam Grass plant response rating,[1]; [15],70
same,"Plant response rating, Surinam Grass",[1]; [20],0
same,"Plant response rating, Surinam Grass",[1]; [17],10
same,Barnyardgrass plant response rating,[2]; [19],70
same,Barnyardgrass plant response rating,[2]; [15],70
same,"Plant response rating, Barnyardgrass",[2]; [20],30
same,"Plant response rating, Barnyardgrass",[2]; [17],30
same,Cocklebur plant response rating,[3]; [19],100
same,Cocklebur plant response rating,[3]; [15],100
same,"Plant response rating, Cocklebur",[3]; [20],20
same,"Plant response rating, Cocklebur",[3]; [17],50
same,Corn plant response rating,corn (Zea mays); [19],70
same,Corn plant response rating,corn (Zea mays); [15],80
same,"Plant response rating, Corn",corn (Zea mays); [20],0
same,"Plant response rating, Corn",corn (Zea mays); [17],0
same,Crabgrass plant response rating,[4]; [19],60
same,Crabgrass plant response rating,[4]; [15],70
same,"Plant response rating, Crabgrass",[4]; [20],40
same,"Plant response rating, Crabgrass",[4]; [17],70
same,"Foxtail, Giant plant response rating",[5]; [19],60
same,"Foxtail, Giant plant response rating",[5]; [15],70
same,"Plant response rating, Foxtail, Giant",[5]; [20],0
same,"Plant response rating, Foxtail, Giant",[5]; [17],20
same,Lambsquarters plant response rating,[6]; [19],100
same,Lambsquarters plant response rating,[6]; [15],100
same,"Plant response rating, Lambsquarters",[6]; [17],70
same,Morningglory plant response rating,[7]; [19],70
same,Morningglory plant response rating,[7]; [15],100
same,"Plant response rating, Morningglory",[7]; [20],0
same,"Plant response rating, Morningglory",[7]; [17],0
same,Pigweed plant response rating,[8]; [19],90
same,Pigweed plant response rating,[8]; [15],100
same,"Plant response rating, Pigweed",[8]; [20],70
same,"Plant response rating, Pigweed",[8]; [17],80
same,Velvetleaf plant response rating,[9]; [19],90
same,Velvetleaf plant response rating,[9]; [15],100
same,"Plant response rating, Velvetleaf",[9]; [20],50
same,"Plant response rating, Velvetleaf",[9]; [17],60
same,Wheat plant response rating,[10]; [19],0
same,Wheat plant response rating,[10]; [15],50
same,"Plant response rating, Wheat",[10]; [20],50
same,"Plant response rating, Wheat",[10]; [17],60
same,Blackgrass plant response rating,[11]; 62 g ai/ha,60
same,Blackgrass plant response rating,[11]; 125 g ai/ha,70
same,"Oat, Wild plant response rating",wild oat (Avena fatua); 62 g ai/ha,40
same,"Oat, Wild plant response rating",wild oat (Avena fatua); 125 g ai/ha,60
same,"Plant response rating, Barnyardgrass","[12]; 125 g ai/ha, scale 0 to 100",0
same,"Plant response rating, Barnyardgrass","[12]; 500 g ai/ha, scale 0 to 100",0
same,"Plant response rating, Ducksalad",[13]; 125 g ai/ha,90
same,"Plant response rating, Ducksalad",[13]; 500 g ai/ha,90
same,"Plant response rating, Rice",rice (Oryza sativa); 125 g ai/ha,0
same,"Plant response rating, Rice",rice (Oryza sativa); 500 g ai/ha,0
same,"Plant response rating, Sedge, Umbrella",[14]; 125 g ai/ha,90
same,"Plant response rating, Sedge, Umbrella",[14]; 500 g ai/ha,90
